Data set [1] in a line: Intrinsic dissolution rate, rotating disk apparatus. The conditions noted are these: 100 rpm, 37±0.5° C., 500 mL. Format: physicochemical. Here is the method:
Intrinsic dissolution measurements were conducted using a rotating disk apparatus. Disks of Compound 1, Compound 2 and Compound 3 were separately prepared by directly compressing 100 mg of a powder of the respectively compounds in a die at a pressure of 2500 psi for 2 minutes using a hydraulic press (Carver Press, Fred Carver, NJ, USA). The exposed surface area for the resulting disks was 0.5 cm^2. A USP dissolution apparatus maintained at 37±0.5° C. was used for the dissolution study. Each dissolution vessel contained 500 mL of aqueous dissolution medium of 0.05 N HCl or pH 6.8 20 mM phosphate buffer with 1% cetyltrimetrylammonium bromide (CTAB). The disk holder (die) was half-immersed into the dissolution medium and rotated at 100 rpm. Samples were withdrawn at specified time intervals and the amount of compound dissolved was determined by HPLC.
The amount of compound dissolved at each time point was plotted versus time and the observed dissolution rate (mg/min) was obtained from the slope of the plot. The observed dissolution rate was divided by the surface area of the compound disk (0.5 cm^2) to obtain the intrinsic dissolution rate.

Data set [2] in a line: Physical stability of dry granulation formulation during processing and storage (XRPD). The conditions noted are these: intragranular blend, milled granules, final blend (FIG. 4). Format: physicochemical.

Counter-ions that a name gives are not always drawn.

As for `c1cn2cc(-c3ccc4cn[nH]c4c3)nc(Nc3ccc(N4CCOCC4)cc3)c2n1` [Compound 1], the “Intrinsic dissolution rate in pH 1.3 0.05N HCl with 0.9% NaCl” value in data set [1] is reported as 0.00046 mg/min/cm^2.

On to `c1cn2cc(-c3ccc4cn[nH]c4c3)nc(Nc3ccc(N4CCOCC4)cc3)c2n1` [bis-mesylate salt of Formula IA], for which the “form change by XRPD during processing” value in data set [2] is “no form change was observed”.

These data come from patent publication US9382256B2, “Formulation of Syk inhibitors” (Gilead Connecticut, Inc., priority 2013, dated 2016).
